Test results: patent publication EP4471048A1, “PEPTIDE INHIBITORS OF INTERLEUKIN-23 RECEPTOR” (Zealand Pharma A/S, priority 2023, dated 2024)
pIC50: −log10 of the molar value. Where a SMILES comes first, the peptide text is derived from it. Bridges are numbered along the chain shown (N, C = ends). [ ]: non-standard residue; d: D form. 2Nal = N[C@@H](Cc1ccc2ccccc2c1)C(=O)O; AEF = NCCOc1ccc(C[C@H](N)C(=O)O)cc1; 3Pal = N[C@@H](Cc1cccnc1)C(=O)O; αMeL = CC(C)C[C@](C)(N)C(=O)O; Dab = NCC[C@H](N)C(=O)O

Key:
[1] = Peptide stability in simulated intestinal fluid (SIF); type: in vitro ADME; settings: 37 °C, porcine pancreatin; for remaining at 1 h, 10 µM / remaining at 4 h, 10 µM: pig; for remaining at 1 h, 10 µM: pH 6.8, 1 h; for remaining at 4 h, 10 µM / SIF (% remaining 4 h): pH 6.8, 4 h; for SIF (% remaining 4 h): 10 µM
Experimental: (§1) SGF was prepared by dissolving sodium chloride (0.2 g) in 50 mL of water. A volume of 0.7 mL of 10 M HCl was added to adjust the pH of the solution to 1.2 and the volume made up to 100 mL with water. […] SIF was prepared by dissolving monobasic potassium phosphate (0.68 g) in 50 mL of water and adjusting the pH to 6.8 with 1 M NaOH. The volume was subsequently made up to 100 mL with water. 200 mg porcine pancreatin (P1625, Sigma Aldrich) was gently dissolved into 20 mL preheated (37 °C) solution (10 g/L) immediately prior to the incubation.
(§2) The incubation was performed at 37 °C with gentle shaking. […] After the last timepoint, the sampling plate was mixed for 10 min on a shaking table and centrifuged 10 min at 2200 g. 70 µL resulting supernatant was diluted with 150 µL water, mixed and centrifugated before analysis by liquid chromatography high resolution mass spectrometry. […] Percent remaining at each timepoint was calculated relative to timepoint zero based on absolute peak areas.
Compounds with a SIF stability (after 4 h) above 70% are considered highly SIF stable.

[2] = biological target: T1, human IL-23R (Homo sapiens, UniProt Q5VWK5); test: biochemical; settings: for Emax: read-out: % displacement (hIL-23R NIuc)
T1 sequence (Q5VWK5 22-629): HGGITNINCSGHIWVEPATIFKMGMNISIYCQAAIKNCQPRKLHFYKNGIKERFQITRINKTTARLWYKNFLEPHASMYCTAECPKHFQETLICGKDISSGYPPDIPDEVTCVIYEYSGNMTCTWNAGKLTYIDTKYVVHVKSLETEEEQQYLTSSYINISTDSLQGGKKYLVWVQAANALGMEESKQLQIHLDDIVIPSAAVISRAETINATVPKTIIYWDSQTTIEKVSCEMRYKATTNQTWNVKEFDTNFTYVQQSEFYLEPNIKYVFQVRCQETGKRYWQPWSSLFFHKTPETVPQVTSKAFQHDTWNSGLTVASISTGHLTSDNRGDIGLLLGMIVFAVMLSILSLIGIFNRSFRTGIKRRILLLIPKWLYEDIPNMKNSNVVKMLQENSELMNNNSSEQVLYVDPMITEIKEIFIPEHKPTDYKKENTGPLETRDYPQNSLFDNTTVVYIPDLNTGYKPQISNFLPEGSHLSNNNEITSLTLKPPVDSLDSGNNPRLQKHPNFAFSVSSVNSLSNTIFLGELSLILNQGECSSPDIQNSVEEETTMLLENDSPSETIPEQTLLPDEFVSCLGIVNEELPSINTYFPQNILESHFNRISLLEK
Outline: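 Membranes from HEK293 cells stably expressing Nluc-tagged human IL-23R were incubated 2 h at room temperature with test compound and a fluorophore-labelled tracer. After substrate addition, loss of BRET (TAMRA over luciferase emission) reported tracer displacement. A 4PL fit gave IC50 values.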

[3] = Peptide stability in simulated gastric fluid (SGF); type: in vitro ADME; settings: 37 °C, porcine pepsin; for remaining at 1 h, 10 µM / remaining at 4 h, 10 µM: pig, simulated gastric fluid (SGF) with porcine pepsin (3.2 g/L); for remaining at 1 h, 10 µM: pH 1.2, 1 h, read-out: SGF (% remaining 1 h)
Experimental: as §1, §2
Compounds with a SGF stability (after 4 h) above 70% are considered highly SGF stable. […] Table 3-4: SGF data

[4] = read-out: SIF (% remaining 4 h)
[5] = pH 1.2, 10 µM, pH 1.2, 4 h, read-out: SGF (% remaining 4 h)
[6] = SAR tables, % peptide remaining, read-out: SIF (% after 4 h)

Row | Compound | remaining at 1 h, 10 µM [1] | remaining at 4 h, 10 µM [1, 4] | pIC50 [2] | Emax [2] | remaining at 1 h, 10 µM ([3]; pH 1.2, 10 µM) | remaining at 4 h, 10 µM [3, 5] | % displacement (hIL-23R NIuc) [2] | remaining at 4 h, 10 µM [1, 6] | SIF (% remaining 4 h) [1] | SGF (% remaining 4 h) ([3]; 10 µM, pH 1.2, 4 h) | remaining at 4 h, 10 µM ([3]; pH 1.2, SAR tables, % peptide remaining, 10 µM, pH 1.2, 4 h, read-out: SGF (% after 4 h))
1 | CC[C@H](C)[C@@H]1NC(=O)[C@@H]2CCCCNC(=O)CC[C@@H](C(=O)NCC(=O)N[C@H](Cc3cccnc3)C(N)=O)NC(=O)[C@](C)(C(C)C)NC(=O)[C@H](Cc3ccc4ccccc4c3)NC(=O)[C@H](Cc3ccc(C)cc3)NC(=O)[C@H](CCC(=O)N2)NC(=O)[C@H](CCC(N)=O)NC(=O)[C@H](Cc2c[nH]c3ccccc23)NC(=O)[C@H](C(C)C)NC1=O [Compound 19, K(1c)(6c)^†IVWQE(6c)[F(4-Me)][2-Nal][2-Me-Val]E(1c)G[{d}3-(3-Pyridyl)-Ala]-[NH2]] | 90% | 27% | 7.43 | 103% | 78% | 6% | – | – | – | – | –
2 | CC[C@H](C)[C@@H]1NC(=O)[C@@H]2CCCCNC(=O)CC[C@@H](C(=O)NCCc3cccnc3)NC(=O)[C@](C)(C(C)C)NC(=O)[C@H](Cc3ccc4ccccc4c3)NC(=O)[C@H](Cc3ccc(OCCN)cc3)NC(=O)[C@H](CCC(=O)N2)NC(=O)[C@H](CCC(N)=O)NC(=O)[C@H](Cc2c[nH]c3ccccc23)NC(=O)[C@H](C(C)C)NC1=O [Compound 26, K(1c)(6c)^†IVWQE(6c)[Y(2-aminoethoxy)][2-Nal][2-Me-Val]E(1c)-[NH-2-(pyridin-3-yl)ethyl]] | 97% | 96% | 6.49 | – | 95% | 96% | 101% | – | – | – | –
3 | CNC(=O)[C@H](Cc1cccnc1)NC(=O)[C@H](CCN)NC(=O)[C@@H]1CCC(=O)NCCCC[C@@H]2NC(=O)CC[C@H](NC(=O)[C@H](CCC(N)=O)NC(=O)[C@H](Cc3c[nH]c4ccccc34)NC2=O)C(=O)N[C@@H](Cc2ccc(OCCN)cc2)C(=O)N[C@@H](Cc2ccc3ccccc3c2)C(=O)N[C@@](C)(CC(C)C)C(=O)N1 [Compound 43, K(1c)(6c)^†WQE(6c)[Y(2-aminoethoxy)][2-Nal][2-Me-Leu]E(1c)[Dab][3-(3-Pyridyl)-Ala]-[NHMe]] (KWQE[AEF][2Nal][αMeL]E[Dab][3Pal]-NHMe; lactam 1-8, N-4) | 91% | – | 7.10 | 100% | 110% | 108% | – | 102% | – | – | –
4 | COc1ccc(C[C@@H]2NC(=O)[C@@H]3CCC(=O)N[C@@H](CCCCNC(=O)CC[C@@H](C(=O)N[C@@H](CCCCNC(=O)c4cccnc4)C(N)=O)NC(=O)[C@](C)(CC(C)C)NC(=O)[C@H](Cc4ccc5ccccc5c4)NC2=O)C(=O)N[C@@H]([C@@H](C)O)C(=O)N[C@@H](C(C)C)C(=O)N[C@@H](Cc2c[nH]c4ccccc24)C(=O)N[C@@H](CCC(N)=O)C(=O)N3)cc1 [Compound 50, K(1c)(6c)^†TVWQE(6c)[Y(Me)][2-Nal][2-Me-Leu]E(1c)[K(nicotinate)]-[NH2]] | 95% | 81% | 6.49 | – | 78% | 8% | 98% | – | – | – | –
5 | CC[C@H](C)[C@@H]1NC(=O)[C@@H]2CCCCNC(=O)CC[C@@H](C(=O)NC3(C(=O)N[C@@H](Cc4cccnc4)C(=O)NC)CCNCC3)NC(=O)[C@](C)(CC(C)C)NC(=O)[C@H](Cc3ccc4ccccc4c3)NC(=O)[C@H](Cc3ccc(OCCN)cc3)NC(=O)[C@H](CCC(=O)N2)NC(=O)[C@H](CCC(N)=O)NC(=O)[C@H](Cc2c[nH]c3ccccc23)NC(=O)[C@H](C(C)C)NC1=O [Compound 62, K(1c)(6c)^†IVWQE(6c)[Y(2-aminoethoxy)][2-Nal][2-Me-Leu]E(1c)[4-Aminopiperidin-4-carbonyl][3-(3-Pyridyl)-Ala]-[NHMe]] | 111% | 87% | 10.14 | 99% | 105% | 108% | – | – | – | – | –
6 | CC[C@H](C)[C@@H]1NC(=O)[C@@H]2CCCCNC(=O)CC[C@@H](C(=O)NCCCCC(=O)N[C@@H](Cc3cccnc3)C(=O)NC)NC(=O)[C@](C)(CC(C)C)NC(=O)[C@H](Cc3ccc4ccccc4c3)NC(=O)[C@H](Cc3ccc(OCCN)cc3)NC(=O)[C@H](CCC(=O)N2)NC(=O)[C@H](CCC(N)=O)NC(=O)[C@H](Cc2c[nH]c3ccccc23)NC(=O)[C@H](C(C)C)NC1=O [Compound 64, K(1c)(6c)^†IVWQE(6c)[Y(2-aminoethoxy)][2-Nal][2-Me-Leu]E(1c)[5-Aminopentanoyl][3-(3-Pyridyl)-Ala]-[NHMe]] | 93% | – | 7.96 | 99% | 102% | 90% | – | 86% | 86% | – | –
7 | CC[C@H](C)[C@@H]1NC(=O)[C@@H]2CCCCNC(=O)CC[C@@H](C(=O)N[C@@H](CCN)C(=O)NCCc3cccnc3)NC(=O)[C@](C)(CC(C)C)NC(=O)[C@H](Cc3ccc4ccccc4c3)NC(=O)[C@H](Cc3ccc(OCCN)cc3)NC(=O)[C@H](CCC(=O)N2)NC(=O)[C@H](CCC(N)=O)NC(=O)[C@H](Cc2c[nH]c3ccccc23)NC(=O)[C@H](C(C)C)NC1=O [Compound 66, K(1c)(6c)^†IVWQE(6c)[Y(2-aminoethoxy)][2-Nal][2-Me-Leu]E(1c)[Dab]-[NH-2-(pyridin-3-yl)ethyl]] | 108% | 112% | 9.92 | 101% | 98% | 97% | – | – | – | – | –
8 | CC[C@H](C)[C@@H]1NC(=O)[C@@H]2CCCCNC(=O)CC[C@@H](C(=O)N[C@@H](CCN)C(=O)N[C@@H](Cc3cccnc3)C(=O)NC)NC(=O)CNC(=O)[C@H](Cc3ccc4ccccc4c3)NC(=O)[C@H](Cc3ccc(OCCN)cc3)NC(=O)[C@H](CCC(=O)N2)NC(=O)[C@H](CCC(N)=O)NC(=O)[C@H](Cc2c[nH]c3ccccc23)NC(=O)[C@H](C(C)C)NC1=O [Compound 68, K(1c)(6c)^†IVWQE(6c)[Y(2-aminoethoxy)][2-Nal]GE(1c)[Dab][3-(3-Pyridyl)-Ala]-[NHMe]] | 33% | – | 10.14 | 99% | 91% | – | – | 0% | 0% | 95% | 95%
9 | CC[C@H](C)[C@@H]1NC(=O)[C@@H]2CCCCNC(=O)CC[C@@H](C(=O)N[C@@H](Cc3cnc[nH]3)C(=O)N[C@@H](Cc3cccnc3)C(=O)NC)NC(=O)[C@](C)(CC(C)C)NC(=O)[C@H](Cc3ccc4ccccc4c3)NC(=O)[C@H](Cc3ccc(OCCN)cc3)NC(=O)[C@H](CCC(=O)N2)NC(=O)[C@H](CCC(N)=O)NC(=O)[C@H](Cc2c[nH]c3ccccc23)NC(=O)[C@H](C(C)C)NC1=O [Compound 69, K(1c)(6c)^†IVWQE(6c)[Y(2-aminoethoxy)][2-Nal][2-Me-Leu]E(1c)H[3-(3-Pyridyl)-Ala]-[NHMe]] | 89% | – | 9.92 | 101% | 112% | 102% | – | 33% | – | – | –
